In patent US6063804A, “Pyrrole compounds” (Adir et Compagnie, priority 1997, dated 2000):
pIC50: −log10 of the molar value. Where two headings read alike, the source gives them in different places.

Assays:
cyclooxygenase 2 (COX 2) = target: T1, cyclooxygenase 2 (COX 2) (Mus musculus, UniProt Q05769); test: Inhibitory activity in relation to COX 2 in peritoneal macrophages exposed to LPS; format: cell-based
T1 construct: using mice peritoneal macrophages exposed to inflammatory stimuli (zymosan and LPS, respectively); endogenous in cells; host or cells: mouse peritoneal macrophages exposed to LPS
T1 sequence (Q05769 18-604): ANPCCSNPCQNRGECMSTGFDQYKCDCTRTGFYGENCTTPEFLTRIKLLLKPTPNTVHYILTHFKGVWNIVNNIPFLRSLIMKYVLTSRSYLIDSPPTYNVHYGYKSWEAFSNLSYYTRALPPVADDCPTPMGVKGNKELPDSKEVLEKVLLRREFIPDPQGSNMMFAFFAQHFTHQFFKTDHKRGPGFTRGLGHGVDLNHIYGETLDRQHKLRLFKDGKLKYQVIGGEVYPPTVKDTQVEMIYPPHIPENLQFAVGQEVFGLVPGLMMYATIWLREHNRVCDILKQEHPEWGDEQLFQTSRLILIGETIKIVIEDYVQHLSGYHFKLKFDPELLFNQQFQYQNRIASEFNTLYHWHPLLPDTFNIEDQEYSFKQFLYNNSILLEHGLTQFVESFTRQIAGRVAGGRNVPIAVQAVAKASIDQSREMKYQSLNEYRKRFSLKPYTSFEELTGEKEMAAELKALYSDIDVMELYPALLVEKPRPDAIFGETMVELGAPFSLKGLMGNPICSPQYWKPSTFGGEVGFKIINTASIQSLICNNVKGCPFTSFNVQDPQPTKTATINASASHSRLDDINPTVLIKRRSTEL
Method: (§1) The inhibitory activities of the compounds in relation to COX 1 and COX 2 were evaluated using mice peritoneal macrophages exposed to inflammatory stimuli (zymosan and LPS, respectively) in accordance with the method described by Tordjman el al., Biochimica et Biophysica Acta, 1995, 1256, 249-56.

cyclooxygenase 1 (COX 1) = target: T2, cyclooxygenase 1 (COX 1) (Mus musculus, UniProt P22437); test: Inhibitory activity in relation to COX 1 in peritoneal macrophages exposed to zymosan; format: cell-based; conditions: mice peritoneal macrophages
T2 construct: using mice peritoneal macrophages exposed to inflammatory stimuli (zymosan and LPS, respectively); endogenous in cells; host or cells: mouse peritoneal macrophages exposed to zymosan
T2 sequence (P22437 27-602): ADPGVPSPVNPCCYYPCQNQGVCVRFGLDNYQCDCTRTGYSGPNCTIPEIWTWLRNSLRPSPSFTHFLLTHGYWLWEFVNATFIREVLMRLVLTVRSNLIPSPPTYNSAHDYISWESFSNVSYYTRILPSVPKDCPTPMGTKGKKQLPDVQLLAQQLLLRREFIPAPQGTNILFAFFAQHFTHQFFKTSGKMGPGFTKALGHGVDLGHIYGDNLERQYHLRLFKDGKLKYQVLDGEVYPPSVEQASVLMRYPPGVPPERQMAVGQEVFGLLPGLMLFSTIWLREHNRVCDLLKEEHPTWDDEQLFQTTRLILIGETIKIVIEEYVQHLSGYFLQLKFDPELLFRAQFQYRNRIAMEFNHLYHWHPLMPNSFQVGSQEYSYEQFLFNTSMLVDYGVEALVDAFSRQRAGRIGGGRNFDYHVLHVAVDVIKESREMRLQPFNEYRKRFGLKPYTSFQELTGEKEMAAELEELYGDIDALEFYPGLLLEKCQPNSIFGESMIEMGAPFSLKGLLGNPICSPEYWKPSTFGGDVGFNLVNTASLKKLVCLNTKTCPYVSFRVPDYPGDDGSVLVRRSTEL
Method: as §1

[1] = system: IL1β production by THP1 line cells; test: Inhibition of production of IL1β by THP1 line cells stimulated with LPS; format: cell-based; conditions: Homo sapiens, THP-1
[2] = system: NO production in mouse peritoneal macrophages; test: Inhibition of NO production in peritoneal macrophages stimulated with LPS; format: cell-based; conditions: Peritoneal macrophage
[3] = system: production of prostaglandins; test: Inhibition of prostaglandin production in the carrageenin air-pouch model; format: in vivo; conditions: oral, mouse
Text: In addition, those compounds exert an activity in animals especially by inhibiting the production of prostaglandins in the carrageenin air-pouch model in the mouse (Whittle, B. J. R. et al., Nature, 1980, 284, 271-273; Masferrer, J. L. el al., Proc. Natl. Acad. Sci. USA, 1994, 91, 3228-3232).

Molecule Fc1ccc(-c2[nH]c(-c3ccc(F)cc3)c3c2CCCC3)cc1 [Example 1, 1,3-di-(4-fluorophenyl)-4,5,6,7-tetrahydro-2H-isoindole] has a pIC50 (cyclooxygenase 2 (COX 2); mice peritoneal macrophages, read-out: IC50 cox 2) of 9.00 and a pIC50 (cyclooxygenase 1 (COX 1)) of 6.30 to 7.00.
Work on c1ccc(-c2[nH]c(-c3ccccc3)c3c2CCCC3)cc1 [Example 2, 1,3-diphenyl-4,5,6,7-tetrahydro-2H-isoindole] yielded a pIC50 (cyclooxygenase 2 (COX 2); read-out: IC50 cox 2, mice peritoneal macrophages) of 9.00 and a pIC50 (cyclooxygenase 1 (COX 1)) of 6.30 to 7.00.
c1ccc(-c2[nH]c(-c3ccccc3)c3c2CCC3)cc1 [Example 4, 1,3-diphenyl-2,4,5,6-tetrahydrocyclopenta[c]pyrrole] gave a pIC50 (cyclooxygenase 1 (COX 1)) of 6.30 to 7.00.
For C1=CCc2c(-c3ccccc3)[nH]c(-c3ccccc3)c2C1 [Example 5, 1,3-diphenyl-4,7-dihydro-2H-isoindole], the pIC50 (cyclooxygenase 1 (COX 1)) was 7.00.
With CC1Cc2c(-c3ccccc3)[nH]c(-c3ccccc3)c2CC1C (stereo not shown) [Example 9, 1,3-diphenyl-5,6-dimethyl-4,5,6,7-tetrahydro-2H-isoindole] the pIC50 [1] was roughly 6.00.
For Fc1ccc(-c2[nH]c(-c3ccc(F)cc3)c3c2C2CCC3C2)cc1 [Example 19, 1,3-di-(4-fluorophenyl)-4,7-methano-4,5,6,7-tetrahydro-2H-isoindole], the pIC50 [2] was 5.60, the ED50 [3] was 2.5 mg/kg and the pIC50 (cyclooxygenase 1 (COX 1)) was 7.00.
